Counter-ions that a name gives are not always drawn. Like-named read-outs stand apart in the source and are kept apart here.
Legend:
Myzus persicae = test: Myzus test (spray treatment); assay type: in vivo; conditions: foliar, read-out: efficacy in % (aphids killed)
Procedure: Solvent 78 parts by weight of acetone • • 1.5 parts by weight of dimethylformamide
Emulsifier: 0.5 part by weight of alkylaryl polyglycol ether
To prepare an appropriate active ingredient preparation, 1 part by weight of active ingredient is mixed with the stated amounts of solvent and emulsifier, and the concentrate is diluted with emulsifier-containing water to the desired concentration.

[1] = Determination of the log P values (formic acid method)
Procedure: 1) Description of Method for Determination of the log P Values (Formic Aid Method)
Eluents for determination in the acidic range (pH 3.4):
Eluent A: acetonitrile+1 ml of formic acid/liter. Eluent B: water+0.9 ml of formic acid/liter.
The lambda max values were determined in the maxima of the chromatographic signals using the UV spectra from 200 nm to 400 nm.

[2] = application rate 500 g/ha, sprayed Chinese cabbage leaf discs, all stages of green peach aphid
[3] = reverse-phase C18 HPLC column, pH 3.4, logP (HCOOH), final compounds table, HPLC reverse-phase C18, acidic range pH 3.4, 55° C.
[4] = reverse-phase C18 HPLC column, pH 3.4, log P (HCOOH), preparation examples, HPLC-MS
[5] = reverse-phase C18 HPLC column, pH 3.4, logP (HCOOH), intermediates tables, HPLC reverse-phase C18, acidic range pH 3.4, 55° C.

Compound | pest or weed control at 500 g/ha (Myzus persicae; [2]) | chromatographic logP [1, 4] | chromatographic logP [1, 5] | also measured
CN(C)S(=O)(=O)NC(=O)c1cccc(-c2cnn(-c3cccnc3)c2)n1 [Compound 27] | 100% | – | – | chromatographic logP [1, 3]: 1.96
O=C(NS(=O)(=O)C1CC1)c1cccc(-c2nnc(-c3cncc(F)c3)s2)n1 [Compound 71] | 100% | – | – | chromatographic logP ([1]; pH 3.4, logP (HCOOH)): 2.14
CCS(=O)(=O)Nc1cccc(-c2cnn(-c3cccnc3)c2)n1 [Compound 19] | 100% | – | – | chromatographic logP ([1]; pH 3.4, logP (HCOOH)): 1.48
Cc1nc(-c2cncc(F)c2)sc1-c1cc(C(=O)NS(C)(=O)=O)nn1C [Compound 64] | 100% | – | – | chromatographic logP ([1]; pH 3.4, logP (HCOOH)): 1.84
CC(C)S(=O)(=O)NC(=O)c1cccc(-c2nnc(-c3cncc(F)c3)s2)n1 [Compound 72] | 100% | – | – | chromatographic logP ([1]; pH 3.4, logP (HCOOH)): 2.31
CS(=O)(=O)NC(=O)c1cccc(-c2cnc(-c3cccnc3)s2)n1 [Compound 12] | 100% | – | – | chromatographic logP ([1]; pH 3.4, logP (HCOOH)): 1.56
O=C(NS(=O)(=O)Cc1ccccc1)c1cccc(-c2cnn(-c3cncc(F)c3)c2)n1 [Compound 33] | 100% | – | – | chromatographic logP [1, 3]: 2.89
CCN(CC)S(=O)(=O)NC(=O)c1cccc(-c2cnn(-c3cccnc3)c2)n1 [Compound 40] | 100% | – | – | chromatographic logP ([1]; pH 3.4, logP (HCOOH)): 2.49
O=C(NS(=O)(=O)CC(F)(F)F)c1cccc(-c2cnc(-c3cncc(F)c3)s2)n1 [Compound 57] | 100% | – | – | chromatographic logP ([1]; pH 3.4, logP (HCOOH)): 2.58
CS(=O)(=O)NC(=O)c1csc(-c2cnn(-c3cccnc3)c2)n1 [Compound 36, N-(Methylsulphonyl)-2-[1-(pyridin-3-yl)-1H-pyrazol-4-yl]-1,3-thiazole-4-carboxamide] | 100% | – | – | chromatographic logP ([1]; pH 3.4, log P (HCOOH)): 1.25; chromatographic logP ([1]; pH 3.4, logP (HCOOH)): 1.25
COCCS(=O)(=O)Nc1cccc(-c2cnn(-c3cccnc3)c2)n1 [Compound 10] | 80% | – | – | chromatographic logP ([1]; pH 3.4, logP (HCOOH)): 1.43
O=C(NS(=O)(=O)C1CC1)c1cccc(-c2cnn(-c3cncc(F)c3)c2)n1 [Compound 29] | 100% | – | – | chromatographic logP [1, 3]: 2.35
Brc1cnn(-c2cccnc2)c1 [3-(4-Bromopyrazol-1-yl)pyridine] | – | 1.56 | – | –
CCS(=O)(=O)NC(=O)c1cccc(-c2cnn(-c3cncnc3)c2)n1 [Compound 7] | 100% | – | – | chromatographic logP ([1]; pH 3.4, logP (HCOOH)): 1.63
O=C(NS(=O)(=O)C1CC1)c1cccc(-c2cnn(-c3cncnc3)c2)n1 [Compound 28] | 80% | – | – | chromatographic logP ([1]; pH 3.4, logP (HCOOH)): 1.76
CCS(=O)(=O)NC(=O)c1cccc(Br)n1 [XII-5] | – | – | 1.54 | –
CS(=O)(=O)NC(=O)c1cccc(-c2cnc(-c3cncc(F)c3)s2)n1 [Compound 9] | 100% | – | – | chromatographic logP ([1]; pH 3.4, logP (HCOOH)): 2.05
N#Cc1cccc(-c2cnc(-c3cncc(F)c3)s2)n1 [6-[2-(5-Fluoropyridin-3-yl)-1,3-thiazol-5-yl]pyridine-2-carbonitrile] | – | 2.51 | – | –
CS(=O)(=O)NC(=O)c1nc(Br)cs1 [XVI-1, 4-Bromo-N-(methylsulphonyl)-1,3-thiazole-2-carboxamide] | – | 0.63 | 0.63 | –
O=C(NS(=O)(=O)Cc1ccccc1)c1cccc(Br)n1 [XII-1] | – | – | 2.4 | –
CS(=O)(=O)NC(=O)c1csc(Br)n1 [XV-1, 2-Bromo-N-(methylsulphonyl)-1,3-thiazole-4-carboxamide] | – | 0.83 | 0.82 | –
CC1(C)OB(c2cnn(-c3cccnc3)c2)OC1(C)C [3-[4-(4,4,5,5-Tetramethyl-[1,3,2]dioxaborolan-2-yl)pyrazol-1-yl]pyridine] | – | – | – | chromatographic logP ([1]; pH 3.4, log P (HCOOH)): 2.19
O=C(O)c1cccc(-c2cnc(-c3cncc(F)c3)s2)n1 [6-[2-(5-Fluoropyridin-3-yl)-1,3-thiazol-5-yl]pyridine-2-carboxylic acid] | – | 1.72 | – | –

Compound | pest or weed control at 500 g/ha (Myzus persicae; [2]) | chromatographic logP [1, 4] | chromatographic logP [1, 5] | also measured
Fc1cncc(-c2nccs2)c1 [XIII-1, 3-Fluoro-5-(1,3-thiazol-2-yl)pyridine] | – | 1.48 | 1.51 | –
N=C(N)c1cccc(-c2cnc(-c3cncc(F)c3)s2)n1 [Compound 79, 6-[2-(5-Fluoropyridin-3-yl)-1,3-thiazol-5-yl]pyridine-2-carboxamide amide hydrochloride (1:1)] | – | 0.71 | – | –
NS(=O)(=O)c1cccc(-c2cnn(-c3cncc(F)c3)c2)n1 [XVII-2] | – | – | 1.44 | –
CS(=O)(=O)NC(=O)c1cccc(-c2cn[nH]c2)n1 [N-(Methylsulphonyl)-6-(1H-pyrazol-4-yl)pyridine-2-carboxamide] | – | 0.91 | – | –
N#Cc1cncc(-c2nccs2)c1 [XIII-4] | – | – | 1.34 | –
CCOC(=O)C(=O)CC(=O)c1sc(-c2cncc(F)c2)nc1C [Ethyl 4-[2-(5-fluoropyridin-3-yl)-4-methyl-1,3-thiazol-5-yl]-2,4-dioxobutanoate] | – | – | – | chromatographic logP ([1]; pH 3.4, log P (HCOOH)): 3.37
CS(=O)(=O)NC(=O)c1cccc(-c2cnn(-c3cncc(F)c3)c2)n1 [Compound 4, 6-[1-(5-Fluoropyridin-3-yl)-1H-pyrazol-4-yl]-N-(methylsulphonyl)pyridine-2-carboxamide] | – | 1.98 | – | –
COC(=O)c1cccc(-c2cnc(-c3cncc(F)c3)s2)n1 [Methyl 6-[2-(5-fluoropyridin-3-yl)-1,3-thiazol-5-yl]pyridine-2-carboxylate] | – | – | – | chromatographic logP ([1]; pH 3.4, log P (HCOOH)): 2.37
CC(=O)NS(=O)(=O)c1cccc(Br)n1 [XIV-2, N-[(6-Bromopyridin-2-yl)sulphonyl]acetamide] | – | 0.95 | 0.95 | –
NS(=O)(=O)c1cccc(-c2cnn(-c3cncnc3)c2)n1 [XVII-3] | – | – | – | chromatographic logP ([1]; pH 3.4, logP (HCOOH)): 0.89
c1ncc(-c2nccs2)cn1 [XIII-3] | – | – | 0.69 | –
Clc1cncc(-c2nccs2)c1 [XIII-2] | – | – | 1.94 | –
Nc1cccc(-c2cnn(-c3cccnc3)c2)n1 [6-[1-(Pyridin-3-yl)-1H-pyrazol-4-yl]pyridine-2-amine] | – | 0.3 | – | –
O=C(NS(=O)(=O)c1ccccc1)c1cccc(Br)n1 [XII-6] | – | – | 2.32 | –
CCOC(=O)c1cc(-c2sc(-c3cncc(F)c3)nc2C)nn1C [Ethyl 3-[2-(5-fluoropyridin-3-yl)-4-methyl-1,3-thiazol-5-yl]-1-methyl-1H-pyrazole-5-carboxylate] | – | – | – | chromatographic logP ([1]; pH 3.4, log P (HCOOH)): 3.7
NS(=O)(=O)c1cccc(-c2cnn(-c3cccnc3)c2)n1 [XVII-1, 6-[1-(pyridin-3-yl)-1H-pyrazol-4-yl]pyridine-2-sulphonamide] | – | 0.99 | 0.99 | –
CS(=O)(=O)NC(=O)c1cccc(Cl)n1 [XII-3] | – | – | 1.15 | –
N=C(N)c1cccc(-c2cnc(-c3cccnc3)s2)n1 [Compound 48] | – | – | – | pest or weed control at 500 g/ha (Myzus persicae; in Brassica rapa): 90%
O=C(NS(=O)(=O)C1CC1)c1cccc(Br)n1 [XII-7] | – | – | 1.7 | –
CS(=O)(=O)NC(=O)c1cccc(Br)n1 [XII-4, 6-Bromo-N-(methylsulphonyl)pyridine-2-carboxamide] | – | 1.21 | 1.28 | –
Cc1nc(-c2cncc(F)c2)sc1-c1cc(C(=O)O)n(C)n1 [3-[2-(5-Fluoropyridin-3-yl)-4-methyl-1,3-thiazol-5-yl]-1-methyl-1H-pyrazole-5-carboxylic acid] | – | 2.05 | – | –
CN(C)S(=O)(=O)NC(=O)c1cccc(Br)n1 [XII-2] | – | – | 1.82 | –

— patent publication US9044015B2, “Heterocyclic compounds as pesticides” (Bayer CropScience AG, priority 2010, dated 2015)
